Laboratory results: ChEMBL document CHEMBL1201862, “PubChem BioAssay data set” (2004)
Active and inactive are the calls of the source.

Key:
INS1 = assay: INS-1E survival protection against cytokine death – cell-based, luminescence, retest, dose response (AID 449756); type: functional; settings: Rattus norvegicus;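 note: cell death triggered by IL-1 beta plus TNF-alpha plus IFN-gamma mixture; protective hits raise ATP signal compared with cytokine alone wells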
[1] = fluconazole-exposed Candida albicans growth modulators – fluorescence, retest, confirmation (AID 2467); type: functional, cell-based
Cytochrome P450 2C19 = Cytochrome P450 2C19 (Homo sapiens, UniProt P33261); assay: Cytochrome panel assay with activity outcomes. Panel member name: p450-cyp2c19 Compounds with AC50 equal or less than 10 uM are considered active; type: functional; settings: read-out: AC50
Sequence of Cytochrome P450 2C19 (P33261 whole entry): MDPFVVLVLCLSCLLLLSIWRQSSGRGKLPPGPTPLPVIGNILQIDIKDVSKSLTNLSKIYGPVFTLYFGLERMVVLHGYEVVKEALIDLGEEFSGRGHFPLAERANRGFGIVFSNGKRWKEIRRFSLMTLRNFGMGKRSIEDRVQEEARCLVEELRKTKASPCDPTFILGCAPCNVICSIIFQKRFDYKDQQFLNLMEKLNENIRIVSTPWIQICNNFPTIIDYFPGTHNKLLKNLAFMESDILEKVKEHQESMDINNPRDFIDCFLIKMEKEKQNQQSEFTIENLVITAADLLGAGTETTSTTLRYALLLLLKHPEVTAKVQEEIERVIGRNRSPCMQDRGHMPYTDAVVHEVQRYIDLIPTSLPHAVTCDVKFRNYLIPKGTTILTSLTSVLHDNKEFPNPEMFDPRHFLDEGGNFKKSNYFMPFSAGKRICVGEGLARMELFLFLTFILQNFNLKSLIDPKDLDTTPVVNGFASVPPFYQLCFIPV

[2] = target: Sphingosine 1-phosphate receptor 2 (Homo sapiens, UniProt O95136); assay: Dose Response Cell Based Assay for Antagonists of the S1P2 Receptor. [Related pubchem assays: 856, 736 ]; type: functional
Sequence of Sphingosine 1-phosphate receptor 2 (O95136 whole entry): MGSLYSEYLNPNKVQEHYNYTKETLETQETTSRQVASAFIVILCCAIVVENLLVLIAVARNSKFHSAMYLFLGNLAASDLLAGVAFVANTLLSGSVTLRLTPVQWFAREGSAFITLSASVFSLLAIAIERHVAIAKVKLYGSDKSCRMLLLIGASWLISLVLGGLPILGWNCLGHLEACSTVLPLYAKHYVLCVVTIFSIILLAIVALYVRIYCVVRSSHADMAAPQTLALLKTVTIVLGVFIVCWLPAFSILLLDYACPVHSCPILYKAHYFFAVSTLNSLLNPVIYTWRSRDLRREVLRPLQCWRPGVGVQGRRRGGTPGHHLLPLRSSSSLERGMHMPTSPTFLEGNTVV

[3] = luciferase reporter signal suppression in cells – H4 neuroglioma cells, luminescence, dose response (AID 1990); type: functional, cell-based
[4] = reduction of Shn3 3'UTR-driven luciferase in osteoblasts – cell-based, Clone20 osteoblasts, firefly luciferase, cherry-picked, dose response (AID 624132); type: functional;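 note: firefly luciferase luminescence from reporter carrying the Shn3 3'UTR in osteoblasts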
Cytochrome P450 3A4 = Cytochrome P450 3A4 (Homo sapiens, UniProt P08684);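 note: CYP3A4 tested as one member of a cytochrome P450 panel screen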
Sequence of Cytochrome P450 3A4 (P08684 whole entry): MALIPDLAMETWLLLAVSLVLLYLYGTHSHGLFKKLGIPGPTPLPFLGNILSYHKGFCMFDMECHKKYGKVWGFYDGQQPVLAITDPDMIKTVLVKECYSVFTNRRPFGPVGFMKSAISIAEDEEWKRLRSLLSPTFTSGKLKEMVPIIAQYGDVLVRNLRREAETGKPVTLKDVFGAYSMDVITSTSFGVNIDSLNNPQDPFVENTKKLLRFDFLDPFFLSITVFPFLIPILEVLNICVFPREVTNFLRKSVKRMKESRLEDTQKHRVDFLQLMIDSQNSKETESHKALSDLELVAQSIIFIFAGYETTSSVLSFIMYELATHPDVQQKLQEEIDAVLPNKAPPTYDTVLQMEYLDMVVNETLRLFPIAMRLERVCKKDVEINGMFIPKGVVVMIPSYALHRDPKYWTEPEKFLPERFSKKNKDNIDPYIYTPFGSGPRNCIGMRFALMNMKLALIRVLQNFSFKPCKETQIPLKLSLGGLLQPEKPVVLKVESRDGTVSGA

[5] = alpha-synuclein stem-loop luciferase translation blockers – H4 neuroglioma cells, luminescence, confirmation (AID 1988); type: functional, cell-based
[6] = non-specific 3'UTR reporter inhibition in Clone20-Shn3RL – cell-based, Renilla luciferase, cherry-picked, counter-screen for Shn3 inhibitor project, dose response (AID 624133); type: functional
[7] = HEK-293T viability loss after treatment – luminescence, T-cell screen hits, cytotoxicity control for TCR NF-kB inhibitor project, dose response (AID 489026); type: functional, cell-based;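 note: cells exposed to compound about 14 hours before the viability readout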
[8] = loss of viability in HepG2 cells – cell-based, CellTiter-Glo, cherry-picked, cytotoxicity control for Shn3 inhibitor project, dose response (AID 624134); type: functional
[9] = Luminescence Cell-Based Dose Response HTS to Identify Inhibitors of 5'UTR Stem-Loop Driven Prion Protein mRNA Translation in H4 Neuroglioblastoma Cells. [Related pubchem assays: 1827 (Project Summary), 1813 (Primary HTS)]; type: functional
[10] = Luminescence-based dose response cell-based high throughput screening assay for cytotoxic compounds using the IEC-6 intestinal epithelial cell line. [Related pubchem assays: 1858 (Summary AID.), 1825 (Counterscreen.), 1907 (Confirmation screen.)]; type: functional
[11] = NIH-3T3 fibroblast cytotoxicity, dose response, cytotoxicity control, cell-based, fluorescence, Alamar Blue, secondary assay (AID 2327); type: functional;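 note: NIH-3T3 mouse fibroblasts cultured with fluconazole at 8 µg/mL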
Cytochrome P450 1A2 = target: T1, Cytochrome P450 1A2 (Homo sapiens, UniProt P05177);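 note: PubChem cytochrome P450 panel assay, CYP1A2 panel member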
T1 sequence (P05177 whole entry): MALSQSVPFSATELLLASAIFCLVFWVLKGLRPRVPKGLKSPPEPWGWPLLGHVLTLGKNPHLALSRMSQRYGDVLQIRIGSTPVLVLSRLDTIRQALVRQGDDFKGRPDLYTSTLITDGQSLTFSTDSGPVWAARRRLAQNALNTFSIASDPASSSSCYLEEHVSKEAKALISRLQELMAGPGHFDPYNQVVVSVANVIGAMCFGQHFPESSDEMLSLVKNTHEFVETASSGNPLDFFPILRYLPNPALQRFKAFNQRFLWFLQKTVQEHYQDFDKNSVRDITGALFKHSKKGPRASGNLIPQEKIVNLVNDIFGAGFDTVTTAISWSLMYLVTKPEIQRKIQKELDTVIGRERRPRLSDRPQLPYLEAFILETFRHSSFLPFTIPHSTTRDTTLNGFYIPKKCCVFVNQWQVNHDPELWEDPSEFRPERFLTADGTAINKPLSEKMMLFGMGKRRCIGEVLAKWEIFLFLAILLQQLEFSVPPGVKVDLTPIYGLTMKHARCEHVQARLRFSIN

Estrogen receptor = target: T2, Estrogen receptor (Homo sapiens, UniProt P03372);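 note: potency for inhibiting coactivator peptide recruitment to the receptor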
T2 sequence (P03372 whole entry): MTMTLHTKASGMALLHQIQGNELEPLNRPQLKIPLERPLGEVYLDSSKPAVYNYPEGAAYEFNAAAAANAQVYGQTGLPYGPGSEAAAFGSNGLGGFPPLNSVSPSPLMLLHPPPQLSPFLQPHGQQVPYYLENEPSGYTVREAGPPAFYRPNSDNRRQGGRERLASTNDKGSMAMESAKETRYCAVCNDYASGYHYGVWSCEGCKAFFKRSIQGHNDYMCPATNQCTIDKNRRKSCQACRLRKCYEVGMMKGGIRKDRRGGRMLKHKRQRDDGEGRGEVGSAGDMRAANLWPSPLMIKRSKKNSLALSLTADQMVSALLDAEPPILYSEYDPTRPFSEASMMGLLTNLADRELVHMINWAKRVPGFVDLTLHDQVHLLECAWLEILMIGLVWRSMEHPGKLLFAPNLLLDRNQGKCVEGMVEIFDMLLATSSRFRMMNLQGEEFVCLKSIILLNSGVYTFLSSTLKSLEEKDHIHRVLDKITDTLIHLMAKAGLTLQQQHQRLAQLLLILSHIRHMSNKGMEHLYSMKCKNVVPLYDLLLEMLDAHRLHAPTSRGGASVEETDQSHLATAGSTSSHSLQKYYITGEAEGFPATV

Cytochrome P450 2D6 = Cytochrome P450 2D6 (Homo sapiens, UniProt P10635); assay: qHTS Assay for Inhibitors and Substrates of Cytochrome P450 2D6. [Related pubchem assays: 410 ]; type: ADME; settings: read-out: Potency
Sequence of Cytochrome P450 2D6 (P10635 whole entry): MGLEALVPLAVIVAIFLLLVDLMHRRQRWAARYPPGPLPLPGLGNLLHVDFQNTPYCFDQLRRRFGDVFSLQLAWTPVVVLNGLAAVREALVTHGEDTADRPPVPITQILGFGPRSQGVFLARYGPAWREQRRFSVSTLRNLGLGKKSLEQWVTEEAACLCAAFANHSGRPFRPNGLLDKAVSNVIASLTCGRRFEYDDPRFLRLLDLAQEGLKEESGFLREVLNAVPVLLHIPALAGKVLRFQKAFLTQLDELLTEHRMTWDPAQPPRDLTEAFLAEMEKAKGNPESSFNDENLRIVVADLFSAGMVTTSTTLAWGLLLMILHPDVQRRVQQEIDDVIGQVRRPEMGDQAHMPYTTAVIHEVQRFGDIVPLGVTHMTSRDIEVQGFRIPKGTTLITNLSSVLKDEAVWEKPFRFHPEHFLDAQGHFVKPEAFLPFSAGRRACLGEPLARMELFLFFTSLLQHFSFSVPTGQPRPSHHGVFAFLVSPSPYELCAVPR

[12] = target: Peroxisome proliferator-activated receptor gamma/Nuclear receptor coactivator 3 (Homo sapiens, UniProt P37231); type: functional;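 note: agonist potency for raising coactivator recruitment to the receptor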
Sequence of Peroxisome proliferator-activated receptor gamma/Nuclear receptor coactivator 3 (P37231 whole entry): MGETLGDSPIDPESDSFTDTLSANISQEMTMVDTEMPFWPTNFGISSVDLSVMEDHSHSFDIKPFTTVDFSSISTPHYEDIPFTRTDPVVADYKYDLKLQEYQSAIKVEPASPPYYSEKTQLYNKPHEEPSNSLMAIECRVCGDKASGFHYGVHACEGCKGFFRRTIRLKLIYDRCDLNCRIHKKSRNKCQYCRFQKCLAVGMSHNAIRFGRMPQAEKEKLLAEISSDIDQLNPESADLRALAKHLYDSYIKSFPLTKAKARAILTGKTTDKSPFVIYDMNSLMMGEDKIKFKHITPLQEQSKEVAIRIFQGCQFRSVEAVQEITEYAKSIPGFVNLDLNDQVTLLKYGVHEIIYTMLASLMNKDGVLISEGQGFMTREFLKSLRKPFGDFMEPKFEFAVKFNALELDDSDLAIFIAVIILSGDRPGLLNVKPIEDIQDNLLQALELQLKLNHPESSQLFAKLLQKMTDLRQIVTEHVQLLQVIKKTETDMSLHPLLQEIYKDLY
Sequence of Peroxisome proliferator-activated receptor gamma/Nuclear receptor coactivator 3 (Q9Y6Q9 whole entry, further chain): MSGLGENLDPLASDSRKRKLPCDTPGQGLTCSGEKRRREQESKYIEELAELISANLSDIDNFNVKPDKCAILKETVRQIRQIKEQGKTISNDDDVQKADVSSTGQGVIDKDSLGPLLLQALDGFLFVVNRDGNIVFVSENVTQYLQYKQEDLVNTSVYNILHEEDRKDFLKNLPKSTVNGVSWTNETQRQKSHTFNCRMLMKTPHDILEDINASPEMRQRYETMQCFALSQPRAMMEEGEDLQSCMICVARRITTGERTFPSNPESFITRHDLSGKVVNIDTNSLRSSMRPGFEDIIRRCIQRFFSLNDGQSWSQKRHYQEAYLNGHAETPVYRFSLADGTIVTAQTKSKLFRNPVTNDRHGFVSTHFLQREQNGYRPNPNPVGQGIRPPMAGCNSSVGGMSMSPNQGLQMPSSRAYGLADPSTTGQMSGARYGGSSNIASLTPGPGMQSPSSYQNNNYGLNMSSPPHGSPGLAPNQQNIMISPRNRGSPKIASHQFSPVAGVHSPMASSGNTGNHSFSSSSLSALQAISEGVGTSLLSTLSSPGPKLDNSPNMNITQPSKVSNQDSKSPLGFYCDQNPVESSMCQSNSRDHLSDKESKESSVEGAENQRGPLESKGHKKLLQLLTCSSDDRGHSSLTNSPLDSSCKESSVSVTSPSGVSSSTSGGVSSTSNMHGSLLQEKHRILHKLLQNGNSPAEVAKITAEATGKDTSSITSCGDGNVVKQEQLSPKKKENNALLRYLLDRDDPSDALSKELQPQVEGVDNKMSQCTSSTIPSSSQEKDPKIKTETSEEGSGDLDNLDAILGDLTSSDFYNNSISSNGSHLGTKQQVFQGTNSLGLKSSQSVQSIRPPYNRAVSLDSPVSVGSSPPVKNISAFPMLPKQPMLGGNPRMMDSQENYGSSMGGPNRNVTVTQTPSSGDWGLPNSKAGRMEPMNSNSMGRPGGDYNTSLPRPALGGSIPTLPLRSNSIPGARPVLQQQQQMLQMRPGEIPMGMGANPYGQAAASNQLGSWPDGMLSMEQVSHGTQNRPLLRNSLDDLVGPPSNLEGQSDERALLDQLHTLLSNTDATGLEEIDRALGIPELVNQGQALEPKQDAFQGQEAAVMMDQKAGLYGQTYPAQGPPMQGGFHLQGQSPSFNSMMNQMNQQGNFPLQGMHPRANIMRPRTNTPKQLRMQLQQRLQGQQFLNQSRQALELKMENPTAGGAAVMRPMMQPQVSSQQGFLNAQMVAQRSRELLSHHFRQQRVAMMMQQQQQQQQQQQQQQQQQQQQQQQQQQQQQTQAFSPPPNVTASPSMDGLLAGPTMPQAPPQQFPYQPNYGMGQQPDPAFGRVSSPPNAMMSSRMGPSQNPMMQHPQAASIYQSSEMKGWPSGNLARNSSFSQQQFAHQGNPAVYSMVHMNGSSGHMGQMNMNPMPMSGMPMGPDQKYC

[13] = target: Peroxisome proliferator-activated receptor gamma/Nuclear receptor coactivator 1 (Homo sapiens, UniProt P37231); type: functional;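 note: agonist potency as compounds enhance coactivator SRC-1 recruitment to PPARgamma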
[14] = target: Peroxisome proliferator-activated receptor gamma/Nuclear receptor coactivator 2 (Homo sapiens, UniProt P37231); type: functional;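 note: agonist potency for raising coactivator recruitment to the receptor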
[15] = A cytotoxicity screen of small molecule inhibitors of the PhoP region in Salmonella typhi identified in the primary screen. [Related pubchem assays: 1850, 1864, 1985 ]; type: functional
Hexokinase HKDC1 = target: T3, Hexokinase HKDC1 (Homo sapiens, UniProt Q2TB90); assay: inhibition of HKDC1 glucose phosphorylation – biochemical, W721R variant, dose response (AID 504729); type: functional
T3 sequence (Q2TB90 whole entry): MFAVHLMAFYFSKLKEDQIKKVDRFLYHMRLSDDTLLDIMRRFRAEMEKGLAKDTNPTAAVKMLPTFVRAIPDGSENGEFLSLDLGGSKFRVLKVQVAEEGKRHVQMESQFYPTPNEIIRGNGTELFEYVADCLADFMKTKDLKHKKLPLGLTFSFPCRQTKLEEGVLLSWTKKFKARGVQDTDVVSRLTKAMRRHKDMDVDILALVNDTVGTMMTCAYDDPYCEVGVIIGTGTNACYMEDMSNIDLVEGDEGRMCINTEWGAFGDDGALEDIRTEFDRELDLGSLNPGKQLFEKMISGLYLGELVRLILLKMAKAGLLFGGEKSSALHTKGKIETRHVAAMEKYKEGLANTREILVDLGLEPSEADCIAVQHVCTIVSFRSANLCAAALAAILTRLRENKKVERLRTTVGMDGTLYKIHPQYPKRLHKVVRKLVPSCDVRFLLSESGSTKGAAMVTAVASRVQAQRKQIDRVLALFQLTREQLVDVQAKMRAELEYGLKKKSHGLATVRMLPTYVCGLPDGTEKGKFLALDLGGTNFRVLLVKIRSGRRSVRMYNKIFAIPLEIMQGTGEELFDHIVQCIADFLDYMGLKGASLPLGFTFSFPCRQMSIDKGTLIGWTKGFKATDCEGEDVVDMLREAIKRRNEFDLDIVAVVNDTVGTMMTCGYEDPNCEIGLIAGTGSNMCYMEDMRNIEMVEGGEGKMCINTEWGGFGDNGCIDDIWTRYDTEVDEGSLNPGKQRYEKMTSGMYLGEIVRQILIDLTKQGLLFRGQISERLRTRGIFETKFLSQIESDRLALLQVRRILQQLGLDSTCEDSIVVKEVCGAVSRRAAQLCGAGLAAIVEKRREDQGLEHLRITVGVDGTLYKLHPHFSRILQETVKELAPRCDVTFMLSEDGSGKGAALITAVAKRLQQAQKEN

Streptococcus = assay: GAS UMAA2166 growth inhibition – luminescence, BacTiterGlo, counter-screen for streptokinase expression inhibitor project, dose response (AID 1915); type: functional, organism-based;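 note: potency for reduction of bacterial viability or growth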
[16] = tested on: Streptococcus sp. 'group A'; assay: Streptococcus pyogenes SK(-)GAS viability under kanamycin – luminescence, BacTiterGlo, confirmation, counter-screen for streptokinase expression inhibitor project, dose response (AID 1900); type: functional, organism-based

## Cn1c2c(c(=O)n(C)c1=O)C(C(F)(F)F)(C(F)(F)F)NC(c1ccc(Cl)cc1)=N2
INS1
  AC50: 0.983 µM (active)
[1]
  EC50: 0.628 µM (active)
Cytochrome P450 2C19
  AC50: 2.82 µM (inconclusive)
[2]
  IC50: 3.79 µM (active)
[3]
  EC50: 0.383 µM (active)
[4]
  AC50: 1.47 µM (active)
Cytochrome P450 3A4
  AC50: 15.8 µM (inconclusive)
[5]
  EC50: 2.83 µM (active)
[6]
  AC50: 2.03 µM (active)
[7]
  IC50: > 80 µM (inactive)
[8]
  AC50: 0.756 µM (active)
[9]
  EC50: 3.25 µM (active)
[10]
  IC50: 2.72 µM (active)
[11]
  EC50: 2.61 µM (active)
Cytochrome P450 1A2
  AC50: 17.8 µM (inconclusive)

## COC(=O)Oc1c(Br)c(=O)oc2ccccc12
Estrogen receptor
  IC50: > 50 µM (not active)

## CC12C=C(/C=C/C=C/c3ccccc3)C(C)(C1)C(/C=C/c1ccccc1)CC2=O (stereo unspecified)
Cytochrome P450 2D6
  AC50: 3.16 µM (inconclusive)

## C/C(N)=C(/C#N)C(=O)COC(=O)c1cc2c(s1)CCCC2
cells
  IC50: 21.3 µM (active)

## CCc1ccc(OCC(=O)NNC(=O)CSc2ncnc3sc(C)c(C)c23)cc1
[12]
  EC50: 33.8 µM (not active)
[13]
  EC50: 28.8 µM (not active)
[14]
  EC50: 25.7 µM (not active)

## O=C(/C=C/c1ccc(Cl)cc1Cl)NCc1ccncc1
[15]
  EC50: > 50 µM (active)

## O=C(N/N=C/C1CC=CCC1)c1cc(Br)ccc1O (stereo unspecified)
[15]
  EC50: > 50 µM (active)

## Cn1c2ccccc2c(=O)c2c(=O)n(-c3ccc(F)cc3)c(-c3cccs3)nc21
Hexokinase HKDC1
  IC50: 2.72 µM (active)
Streptococcus
  EC50: 9.21 µM (active)
[16]
  EC50: 9.47 µM (active)
